Data reported in patent US8883739B2, “Osteocalcin as a treatment for male reproductive disorders” (The Trustees of Columbia University in the City of New York, priority 2010, dated 2014).
Where no end group is shown, it is not given here.

What was measured:
[1] = target: T1, GPRC6a (Mus musculus, UniProt Q8K4Z6); assay: Receptor binding assay with biotinylated osteocalcin on testis sections
T1 construct: testes from 8-week old mice were snap frozen in liquid nitrogen and 20 μm thick sections were prepared; from tissue; host or cells: mouse testis sections (Leydig cells), 8-week old mice
T1 sequence (Q8K4Z6 21-928): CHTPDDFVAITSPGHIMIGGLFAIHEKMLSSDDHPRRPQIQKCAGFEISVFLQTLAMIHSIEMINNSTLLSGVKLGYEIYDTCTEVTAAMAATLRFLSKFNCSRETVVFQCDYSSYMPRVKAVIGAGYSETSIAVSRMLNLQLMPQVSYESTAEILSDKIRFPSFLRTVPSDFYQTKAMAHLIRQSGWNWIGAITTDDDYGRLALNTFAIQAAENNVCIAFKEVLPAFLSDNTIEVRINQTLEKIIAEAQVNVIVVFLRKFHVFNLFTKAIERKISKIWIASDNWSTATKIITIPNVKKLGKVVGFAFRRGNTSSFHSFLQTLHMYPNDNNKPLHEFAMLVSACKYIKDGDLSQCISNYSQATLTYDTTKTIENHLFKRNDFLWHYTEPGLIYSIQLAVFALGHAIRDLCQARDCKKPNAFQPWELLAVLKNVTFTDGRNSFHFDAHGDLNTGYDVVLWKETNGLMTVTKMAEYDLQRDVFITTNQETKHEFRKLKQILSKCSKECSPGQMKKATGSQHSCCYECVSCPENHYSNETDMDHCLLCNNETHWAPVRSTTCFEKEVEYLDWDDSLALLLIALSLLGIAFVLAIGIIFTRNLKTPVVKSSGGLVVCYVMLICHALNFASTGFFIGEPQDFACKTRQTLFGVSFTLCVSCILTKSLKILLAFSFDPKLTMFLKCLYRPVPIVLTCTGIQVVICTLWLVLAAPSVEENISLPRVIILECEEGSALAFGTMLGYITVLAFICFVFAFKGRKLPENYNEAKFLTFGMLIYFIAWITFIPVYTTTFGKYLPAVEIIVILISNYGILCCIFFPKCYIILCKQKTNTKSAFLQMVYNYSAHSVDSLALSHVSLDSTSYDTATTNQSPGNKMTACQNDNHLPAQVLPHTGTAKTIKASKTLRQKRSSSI
Experimental: For binding studies, testes from 8-week old mice were snap frozen in liquid nitrogen and 20 μm thick sections were prepared and dessicated overnight at +4° C. under vacuum. On the following day, sections were rehydrated in ice-cold binding buffer (50 mM TrisHCl, pH 7.4, 10 mM MgCl2, 0.1 mM EDTA and 0.1% BSA) for 15 minutes and incubated for 1 hour in the presence of biotinylated osteocalcin. […] After 3 washes in cold PBS, sections were incubated for 1 hour in the detection system containing 0.1% BSA (ABC Elite, Vector Laboratories), washed again, and incubated with DAB peroxidase substrate kit (Vector Laboratories) according to the manufacturer's protocol. After a final wash, sections were mounted in water-based mounting medium. As negative controls, sections incubated with the detection system only (ABC Elite and DAB) or OstR−/− testis sections (Basura et al., 2008, Hear. Res. 244:45-50) were used.

[2] = test system: Leydig cells; assay: CREB phosphorylation Western blot of Leydig cells; assay type: cell-based, mouse
Experimental: (§1) Western blotting was performed according to standard procedures. Frozen testes were homogenized and lysed with 1×RIPA buffer. Membranes were blocked and then incubated overnight with primary antibody in TBST-5% BSA, followed by incubation with appropriate HRP-conjugated secondary antibody. Signals were visualized with ECL. The following primary antibodies were used: anti-phospho-tyrosin (9416), anti-pERK1/2 (4370), anti-ERK1/2 (9102), anti-pCREB (9198), anti-CREB (4820), anti-Cleaved Caspase-3 (Asp175) (9661) (all from Cell Signaling), and anti-tACE (H-300): sc-13973 and anti-CHD5 (H-185): sc-68390 from Santa Cruz; the anti-osteocalcin was described in Ferron et al., 2010, Biochem. Biophys. Res. Comm. 397:691-696.

[3] = test system: WT mice; assay: Daily osteocalcin injections in WT mice for 12 weeks; assay type: in vivo, mouse
Experimental: WT mice (n=6) were injected daily with either 3 ng/g or 30 ng/g of uncarboxylated osteocalcin for 12 weeks. […] Likewise, serum testosterone levels were increased in osteocalcin-injected mice compared to vehicle-injected mice (FIG. 7D).
(§2) Caudal epididymides were minced in 1 ml PBS and the number of cells released counted after 1 hour. The total sperm count was assessed in the final suspension by using a hemacytometer (Dakhova et al., 2009, Endocrinology 150:404-412). Circulating levels of testosterone, estradiol (E2), and progesterone were measured by radioimmunoassay (RIA) from Diagnostic Systems Laboratories (Testosterone RIA DSL-4000, Estradiol RIA DSL-43100, and Progesterone RIA-3900).
One testis or ovary from each mouse was randomly selected for molecular analysis and the other one was used for histology. Specimens were collected, weighed, and fixed in Bouin's fixative for histological analyses before being dehydrated through graded ethanol, processed for paraffin embedding, and serially sectioned at 5 μm. For histological analysis, sections of testes and ovaries were stained with periodic acid-Schiff and counterstained with hematoxylin. TUNEL labeling was performed using the ApopTag Peroxydase In Situ Apoptosis detection kit (Millipore-57100). Apoptotic indices were determined by counting the total number of TUNEL-positive cells or the number of TUNEL positive spermatocytes for all stage tubules. Approximately 500 tubules were counted on at least 4 cross-sections located at midtestis for each animal.

[4] = test system: primary Leydig cells; assay: Osteocalcin stimulation of primary Leydig cells, testosterone RIA; assay type: cell-based, mouse; conditions: increasing amounts of osteocalcin (0-100 ng/ml)
Experimental: (§3) Adult mouse Leydig cells were isolated by mechanical dissociation of the testes followed by purification on a 0-90% Percoll gradient (Hunter et al., 1982, Mol. Cell. Endocrinol. 25:35-47; Schumacher et al., 1978, FEBS Lett. 91:333-338). Primary Leydig cells were cultured in Minimal Essential Medium (MEM+GlutaMAX, Invitrogen) supplemented with 1× PenStrep, 25 mM HEPES, pH 7.4 and 0.07% BSA at 33° C. in 5% CO2. After 3 hours of attaching and starvation, cells were washed once with culture medium and then used for experiments. The preparation of testis explants was adapted from Powlin et al., 1998, Toxicol. Sci. 46:61-74. Explants were washed 3 times with PBS 1× and placed in serum free RPMI medium for 2 hours before being used for experiments.
(§4) After 1 hour, an aliquot of medium was collected for measurements of testosterone. Cells were then maintained for 3 additional hours and lysed in 1 ml TRIZOL® (Invitrogen) for RNA isolation.
as §2

[5] = test system: TM3 Leydig cells; assay: qPCR of steroidogenic genes in TM3 Leydig cells treated with osteocalcin; assay type: cell-based, mouse; conditions: osteocalcin 0.3 to 300 ng/ml, 2 hours
Experimental: TM3 cells were treated with increasing amounts of osteocalcin and assayed for the expression of genes encoding enzymes of the steroidogenic cascade. […] Thus, whether looked at by in vivo or cell-based assays, osteocalcin promotes testosterone biosynthesis.
Gene expression analyses were performed using real time PCR. DNAse I-treated total RNA was converted to cDNA with the SuperScript III kit (Invitrogen). Real-time PCR were performed using the Taq SYBR Green Supermix with ROX (Biorad) on an MX3000 instrument (Stratagene); beta-actin amplification was used as an internal reference for each sample. All primers were from SuperArray.
(§5) RNA was purified from tissues, primary Leydig cells, or cultured cells using TRIZOL® (Invitrogen). RNA isolation, cDNA preparation, and qPCR analysis was carried out following standard protocols. qPCR analyses were performed using specific quantitative PCR primers from SABiosciences.

[6] = test system: primary Leydig cells; assay: Measurement of intracellular calcium in primary Leydig cells; assay type: cell-based, mouse
Experimental: Isolated primary Leydig cells were resuspended in buffer containing 95 mM NaCl, 4.8 mM KCl, 1.2 mM MgSO4, 1.2 mM KH2PO4, 5.6 mM glucose, 25 mM NaHCO3, 1.7 mM CaCl2, 0.25 mM sodium purivate, 1× PenStrep, 20 mM HEPES, 0.3% BSA, pH 7.4 at 37° C. (reagents from Sigma Aldrich, except for sodium pyruvate, PenStrep and HEPES from Invitrogen), plated at the density of 17-25000 cells/well on 96-well plate and placed in an incubator at 33° C., 5% CO2 for 2 hours. Afterward, the FLIPR dye (Calcium Plus Assay Kit Dye, Molecular Devices) diluted in the same buffer supplemented with 2.5 mM probenecid, pH 7.4 was exchanged for the previous medium and incubated with the cells for an additional 30-45 minutes. Following the incubation with the dye, cells were placed in a BD Pathway 855 High-Content Bioimager, recorded for 10-20 seconds to get baseline fluorescence, and then stimulated with doses of osteocalcin ranging from 0.3 to 500 ng/ml as well as control substances: medium, calcium ionophore A23187, 10% FBS, 400 μM Arginine^2+, 100 μM ATP/UTP mix and recorded for an additional 2-5 minutes. The probing time was varied between 1 and 5 seconds. Obtained images were analyzed for the change in fluorescence using ImageJ 1.41.

[7] = test system: TM3 Leydig cells; assay: ERK1/2 phosphorylation Western blot of Leydig cells; assay type: cell-based, mouse
Experimental: as §1

[8] = test system: TM3 Leydig cells; assay: Anti-phospho-tyrosine Western blot of Leydig cells; assay type: cell-based, mouse; conditions: 1 minute
Experimental: as §1

[9] = test system: TM3 Leydig cells; assay: cAMP quantification in Leydig cells; assay type: cell-based, mouse; conditions: 30 minutes, 0.5 mM IBMX
Experimental: For cAMP measurements, TM3 Leydig cells were plated in 6 cm dishes (10^7 cells per dish) a day before experiment. Cells were serum starved for 16 hours (in the presence of 0.1% BSA) then pre-incubated in the presence of 0.5 mM IBMX for 30 minutes and stimulated with the indicated concentration of osteocalcin (also in the presence of 0.5 mM IBMX) for 30 minutes. cAMP concentration was measured with the Parameter cAMP kit (R&D Systems, KGE002).

[10] = test system: WT mice; assay: Circulating testosterone after osteocalcin injection in WT mice; assay type: in vivo, mouse; conditions: injection 3 ng/g of body weight, 1, 4 and 8 hours
Experimental: as §2

[11] = test system: Leydig cell cultures; assay: Expression of testosterone biosynthesis enzymes in Leydig cell cultures treated with uncarboxylated osteocalcin; assay type: cell-based, mouse; conditions: qPCR
Experimental: as §3, §4, §5

[12] = test system: testis explants; assay: Osteocalcin stimulation of testis explants, testosterone RIA; assay type: cell-based, mouse; conditions: increasing amounts of osteocalcin (0-100 ng/ml)
Experimental: as §3, §4, §2

[13] = target: T2, GPCR6A (Mus musculus, UniProt Q8K4Z6); conditions: Christiansen et al., 2007; cited from earlier work
T2 sequence (Q8K4Z6 21-928): T1 sequence (Q8K4Z6 21-928)

[14] = WT mice, 3 ng/g or 30 ng/g daily for 12 weeks, both doses

For “biotinylated osteocalcin: biotinylated osteocalcin used as a ligand in binding assays on mouse testes (YLGASVPSPDPLEPTREQCELNPACDELSDQYGLKTAYKRIYGITI; ends and bridges not checked; also: biotinylated, site not given here)”, the “binding to GPRC6a-deficient testes” value ([1]; GPRC6a-deficient testis sections) was “no binding was detected” and the “binding to Leydig cells” value ([1]; WT mouse testis sections) was “bound”.

For “uncarboxylated osteocalcin: Recombinant osteocalcin bacterially produced as GST fusion, cleaved with thrombin; completely undercarboxylated at all three sites (YLGASVPSPDPLEPTREQCELNPACDELSDQYGLKTAYKRIYGITI)”, the CREB phosphorylation [2] was “favors”, the serum testosterone levels ([3]; WT mice injected daily, compared to vehicle-injected mice) was “increased” and the sperm cell apoptosis [3, 14] was “decreased”. The sperm count [3, 14] was “significantly increased”, the testis weight [3, 14] was “significantly increased” and the testosterone secretion [4] was “dose-dependent increase”. For the same compound, the “expression of StAR, Cyp11a and Cyp17” value [5] was “specifically increased”, the intracellular calcium accumulation [6] was “did not induce” and the “ERK activation (ERK1/2 phosphorylation)” value ([7]; listed as Osteocalcin) was “did not induce”. The “ERK activation (ERK1/2 phosphorylation)” value ([7]; listed as osteocalcin) was “absence of ERK1/2 phosphorylation”, the tyrosine phosphorylation ([8]; listed as Osteocalcin) was “did not induce” and the tyrosine phosphorylation ([8]; listed as osteocalcin) was “not in osteocalcin treated cells”. The cAMP production ([9]; listed as Osteocalcin) was “consistently induced”, the cAMP production ([9]; listed as osteocalcin) was “increased” and the “circulating levels of testosterone” value [10] was “increased”. For the same compound, the “expression of StAR, Cyp11a, Cyp17 and 3β-HSD” value [11] was “increased”, the testosterone secretion [12] was “dose-dependent increase” and the “competition of osteocalcin binding” value ([1]; excess (100 fold) of unlabeled competitor, WT testis sections) was “competed away”.

For `N=C(N)NCCC[C@H](N)C(=O)O` [arginine], the “activation of GPCR6A” value [13] is listed as “activate”.

For `NCCCC[C@H](N)C(=O)O` [lysine], the “activation of GPCR6A” value [13] is given as “activate”.

In the case of `NCCC[C@H](N)C(=O)O` [ornithine], the “activation of GPCR6A” value [13] is given as “activate”.
